Drawing on US12410171B2, “Tropomyosin receptor kinase (TRK) degradation compounds and methods of use” (Cullgen (Shanghai), Inc., priority 2020, dated 2025), this text covers percent degradation of TPM3-TRKA protein and IC50 for 16 compounds.

Assay [1] concerns the target T1, TPM3-TRKA fusion protein (Homo sapiens, UniProt P04629).
T1 construct: The resulted chimeric proteins always retain the kinase domain of TRK proteins; TPM3 (fusion partner, N-terminal part of tropomyosin alpha-3, P06753); endogenous in cells; host or cells: KM12 colon cancer cells; the other entry of the earlier key: TPM3 (P06753, Tropomyosin alpha-3 chain)
The assay can be described thus: TPM3-TRKA fusion protein levels in KM12 cells (Western blot). The format is cell-based. Conditions: read-out: Degradation (at 10 nM). An outline of the steps: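 KM12 colon cancer cells were treated with DMSO or compounds at 0.1–100 nM, 0.4–30 nM or other stated concentrations for 4, 8–16 or 16 h. RIPA lysates were BCA-normalized and resolved by SDS-PAGE. TPM3-TRKA was detected by chemiluminescent Western blot, with bands quantified by densitometry.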
On the technique in general: A western blot detects proteins with antibodies after separation by electrophoresis.

Assay [2] deals with KM12 cells. The assay can be described thus: KM12 cell viability (CellTiter-Glo). The format is cell-based. Conditions: Homo sapiens. An outline of the steps:
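KM12 cells seeded at 5000 per well in RPMI 1640 + 10% FBS and exposed 3 days to serial dilutions (11-point 3-fold, 8-point 3-fold from 1000 nM, or 12-point 2-fold). Viability by CellTiter-Glo; IC50 from least-squares nonlinear regression.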
Background: Cellular ATP, detected with luciferase, serves as a proxy for viable cell number.

[3] abbreviates: 16 h, TPM3-TRKA degradation in KM12 cells at 10 nM compound, category of percentage degradation.
Setting [4] is: 72 h, KM12 cell viability, CellTiter-Glo, three days treatment, read-out: IC50.

The structures appear in SMILES notation. pIC50: −log10 of the molar value. Like-named read-outs stand apart in the source and are kept apart here. Some results are limits rather than exact numbers.

What is called pIC50 is the IC50 on a negative log10 scale, so that one unit is a factor of ten.

T1 sequence (P04629 with tags, fused parts or gaps): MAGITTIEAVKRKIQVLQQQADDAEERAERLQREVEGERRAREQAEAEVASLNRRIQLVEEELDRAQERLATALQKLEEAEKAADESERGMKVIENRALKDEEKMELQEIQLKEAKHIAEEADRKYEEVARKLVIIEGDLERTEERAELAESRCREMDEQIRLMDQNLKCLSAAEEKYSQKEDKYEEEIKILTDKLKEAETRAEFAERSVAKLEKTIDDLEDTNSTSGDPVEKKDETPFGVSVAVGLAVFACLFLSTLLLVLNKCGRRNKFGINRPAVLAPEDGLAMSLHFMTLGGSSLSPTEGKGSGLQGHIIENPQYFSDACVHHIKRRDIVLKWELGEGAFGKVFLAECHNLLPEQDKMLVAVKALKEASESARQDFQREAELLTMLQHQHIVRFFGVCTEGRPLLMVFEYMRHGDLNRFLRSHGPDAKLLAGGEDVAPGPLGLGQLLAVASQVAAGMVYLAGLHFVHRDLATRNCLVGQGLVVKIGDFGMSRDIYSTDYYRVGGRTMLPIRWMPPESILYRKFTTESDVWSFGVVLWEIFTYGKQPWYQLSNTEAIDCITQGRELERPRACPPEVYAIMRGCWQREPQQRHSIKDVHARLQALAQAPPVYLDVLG

Turning to `Cn1c(=O)n(C2CCC(=O)NC2=O)c2cccc(CCCCN3CCN(c4ccc(C(=O)Nc5n[nH]c6ccc(Cc7cc(F)cc(F)c7)cc56)c(NC5CCOCC5)c4)CC3)c21` (centres unmarked) [TR-304, N-(5-(3,5-difluorobenzyl)-1H-indazol-3-yl)-4-(4-(4-(1-(2,6-dioxopiperidin-3-yl)-3-methyl-2-oxo-2,3-dihydro-1H-benzo[d]imidazol-4-yl)butyl)piperazin-1-yl)-2-((tetrahydro-2H-pyran-4-yl)amino)benzamide], in assay [1] (setting [3]), the percent degradation of TPM3-TRKA protein at 0.01 µM was more than 80%. Further, in assay [2] (setting [4]), the negative-log IC50 (pIC50) was 8.82.
The corresponding values for `Cn1c(=O)n(C2CCC(=O)NC2=O)c2cccc(CCCN3CCN(c4ccc(C(=O)Nc5n[nH]c6ccc(Cc7cc(F)cc(F)c7)cc56)c(NC5CCOCC5)c4)CC3)c21` (centres unmarked) [TR-305, N-(5-(3,5˜Difluorobenzyl)-1H-indazol-3-yl)-4-(4-(3-(1-(2,6-dioxopiperidin-3-yl)-3-methyl-2-oxo-2,3-dihydro-1H-benzo[d]imidazol-4-yl)propyl)piperazin-1-yl)-2-((tetrahydro-2H-pyran-4-yl)amino)benzamide] are more than 80% and 8.60.
Regarding `Cn1c(=O)n(C2CCC(=O)NC2=O)c2cccc(C#CCCN3CCN(c4ccc(C(=O)Nc5n[nH]c6ccc(Cc7cc(F)cc(F)c7)cc56)c(NC5CCOCC5)c4)CC3)c21` (centres unmarked) [TR-306, N-(5-(3,5-difluorobenzyl)-1H-indazol-3-yl)-4-(4-(4-(1-(2,6-dioxopiperidin-3-yl)-3-methyl-2-oxo-2,3-dihydro-1H-benzo[d]imidazol-4-yl)but-3-yn-1-yl)piperazin-1-yl)-2-((tetrahydro-2H-pyran-4-yl)amino)benzamide], the percent degradation of TPM3-TRKA protein at 0.01 µM in assay [1] (setting [3]) was more than 80%. Moreover, the negative logarithm of the IC50 (pIC50) in assay [2] (setting [4]) is 8.40.
Regarding `O=C1CCC(N2C(=O)c3ccc(C4CN(C5CCN(c6cccc(-c7cnc8ccc(N9CCC[C@@H]9c9cccc(F)c9)nn78)n6)CC5)C4)cc3C2=O)C(=O)N1` (stereo partly drawn) [TR-308, 2-(2,6-dioxopiperidin-3-yl)-5-(1-(1-(6-(6-((R)-2-(3-fluorophenyl)pyrrolidin-1-yl)imidazo[1,2-b]pyridazin-3-yl)pyridin-2-yl)piperidin-4-yl)azetidin-3-yl)isoindoline-1,3-dione], the percent degradation of TPM3-TRKA protein at 0.01 µM in assay [1] (KM12, 16 h) is more than 80%. Also, in assay [2] (setting [4]), the pIC50 is 7.93.
With `O=C1CCC(N2Cc3ccc(C4CN(C5CCN(c6cccc(-c7cnc8ccc(N9CCC[C@@H]9c9cccc(F)c9)nn78)n6)CC5)C4)cc3C2=O)C(=O)N1` (stereo partly drawn) [TR-309, 3-(6-(1-(1-(6-(6-((R)-2-(3-fluorophenyl)pyrrolidin-1-yl)imidazo[1,2-b]pyridazin-3-yl)pyridin-2-yl)piperidin-4-yl)azetidin-3-yl)-1-oxoisoindolin-2-yl)piperidine-2,6-dione], the percent degradation of TPM3-TRKA protein at 0.01 µM in assay [1] (KM12, 16 h) was 50 to 80%. Moreover, the pIC50 in assay [2] (setting [4]) was 8.37.
Turning to `Cn1c(=O)n(C2CCC(=O)NC2=O)c2ccc(OCCN3CCN(c4ccc(C(=O)Nc5n[nH]c6ccc(Cc7cc(F)cc(F)c7)cc56)c(NC5CCOCC5)c4)CC3)cc21` (centres unmarked) [TR-314, N-(5-(3,5˜Difluorobenzyl)-1H-indazol-3-yl)-4-(4-(2-((1-(2,6-dioxopiperidin-3˜yl)-3-methyl-2-oxo-2,3-dihydro-1H-benzo[d]imidazol-5-yl)oxy)ethyl)piperazin-1-yl)-2-((tetrahydro-2H-pyran-4-yl)amino)benzamide], the percent degradation of TPM3-TRKA protein at 0.01 µM in assay [1] (KM12, 16 h) is 50 to 80%. This compound also gave a pIC50 in assay [2] (KM12, 72 h) of 6.67.
Take `Cn1c(=O)n(C2CCC(=O)NC2=O)c2cccc(NCCCN3CCN(c4ccc(C(=O)Nc5n[nH]c6ccc(Cc7cc(F)cc(F)c7)cc56)c(NC5CCOCC5)c4)CC3)c21` (stereo not drawn) [TR-315, N—(S-(3,5-difluorobenzyl)-1H-indazol-3-yl)-4-(4-(3-((1-(2,6-dioxopiperidin-3-yl)-3-methyl-2-oxo-2,3-dihydro-1H-benzo[d]imidazol-4-yl)amino)propyl)piperazin-1-yl)-2-((tetrahydro-2H-pyran-4-yl)amino)benzamide]: the percent degradation of TPM3-TRKA protein at 0.01 µM in assay [1] (setting [3]) was more than 80%. For the same compound, in assay [2] (setting [4]), the pIC50 is 8.35.
The corresponding values for `Cn1c(=O)n(C2CCC(=O)NC2=O)c2ccc(NCCCN3CCN(c4ccc(C(=O)Nc5n[nH]c6ccc(Cc7cc(F)cc(F)c7)cc56)c(NC5CCOCC5)c4)CC3)cc21` (centres unmarked) [TR-316, N-(5-(3,5-difluorobenzyl)-1H-indazol-3-yl)-4-(4-(3-((1-(2,6-dioxopiperidin-3-yl)-3-methyl-2-oxo-2,3-dihydro-1H-benzo[d]imidazol-5-yl)amino)propyl)piperazin-1-yl)-2-((tetrahydro-2H-pyran-4-yl)amino)benzamide] are more than 80% and 8.64.
With `O=C1CCC(N2Cc3ccc(N4CC(CN5CCN(c6cccc(-c7cnc8ccc(N9CCC[C@@H]9c9cccc(F)c9)nn78)n6)CC5)C4)cc3C2=O)C(=O)N1` (stereo partly drawn) [TR-317, 3-(6-(3-((4-(6-(6-((R)-2-(3-fluorophenyl)pyrrolidin-1-yl)imidazo[1,2-b]pyridazin-3-yl)pyridin-2-yl)piperazin-1-yl)methyl)azetidin-1-yl)-1-oxoisoindolin-2-yl)piperidine-2,6-dione], the percent degradation of TPM3-TRKA protein at 0.01 µM in assay [1] (setting [3]) was more than 80%. Further, the negative logarithm of the IC50 (pIC50) in assay [2] (setting [4]) is 8.30.
Regarding `O=C1CCC(N2Cc3ccc(N4CC(CN5CCN(c6ccc(C(=O)Nc7n[nH]c8ccc(Cc9cc(F)cc(F)c9)cc78)c(NC7CCOCC7)c6)CC5)C4)cc3C2=O)C(=O)N1` (centres unmarked) [TR-318, N-(5-(3,5-difluorobenzyl)-1H-indazol-3-yl)-4-(4-((1-(2-(2,6-dioxopiperidin-3-yl)-3-oxoisoindolin-5-yl)azetidin-3-yl)methyl)piperazin-1-yl)-2-((tetrahydro-2H-pyran-4-yl)amino)benzamide], in assay [1] (setting [3]), the percent degradation of TPM3-TRKA protein at 0.01 µM is more than 80%. In addition, the pIC50 in assay [2] (setting [4]) is 8.62.
In the case of `Cn1c(=O)n(C2CCC(=O)NC2=O)c2ccc(C#CCCN3CCN(c4ccc(C(=O)Nc5n[nH]c6ccc(Cc7cc(F)cc(F)c7)cc56)c(NC5CCOCC5)c4)CC3)cc21` (centres unmarked) [TR-319, N-(5-(3,5-difluorobenzyl)-1H-indazol-3-yl)-4-(4-(4-(1-(2,6-dioxopiperidin-3-yl)-3-methyl-2-oxo-2,3-dihydro-1H-benzo[d]imidazol-5-yl)but-3-yn-1-yl)piperazin-1-yl)-2-((tetrahydro-2H-pyran-4-yl)amino)benzamide], the percent degradation of TPM3-TRKA protein at 0.01 µM in assay [1] (setting [3]) is more than 80%. For the same compound, the pIC50 in assay [2] (setting [4]) was 8.24.
In the same order, the values of `Cn1c(=O)n(C2CCC(=O)NC2=O)c2ccc(CCCCN3CCN(c4ccc(C(=O)Nc5n[nH]c6ccc(Cc7cc(F)cc(F)c7)cc56)c(NC5CCOCC5)c4)CC3)cc21` (stereo not drawn) [TR-320, N—(S-(3,5-difluorobenzyl)-1H-indazol-3-yl)-4-(4-(4-(1-(2,6-dioxopiperidin-3-yl)-3-methyl-2-oxo-2,3-dihydro-1H-benzo[d]imidazol-5-yl)butyl)piperazin-1-yl)-2-((tetrahydro-2H-pyran-4-yl)amino)benzamide] are more than 80% and 8.85.
In the case of `Cn1c(=O)n(C2CCC(=O)NC2=O)c2ccc(N3CC(CN4CCN(c5ccc(C(=O)Nc6n[nH]c7ccc(Cc8cc(F)cc(F)c8)cc67)c(NC6CCOCC6)c5)CC4)C3)cc21` (centres unmarked) [TR-321, N-(5-(3,5-difluorobenzyl)-1H-indazol-3-yl)-4-(4-((1-(1-(2,6-dioxopiperidin-3-yl)-3-methyl-2-oxo-2,3-dihydro-1H-benzo[d]imidazol-5-yl)azetidin-3-yl)methyl)piperazin-1-yl)-2-((tetrahydro-2H-pyran-4-yl)amino)benzamide], in assay [1] (setting [3]), the percent degradation of TPM3-TRKA protein at 0.01 µM is more than 80%. Besides, the pIC50 in assay [2] (setting [4]) was 8.64.
Take `Cn1c(=O)n(C2CCC(=O)NC2=O)c2cccc(OCCN3CCN(c4ccc(C(=O)Nc5n[nH]c6ccc(Cc7cc(F)cc(F)c7)cc56)c(NC5CCOCC5)c4)CC3)c21` (centres unmarked) [TR-322, N-(5-(3,5˜Difluorobenzyl)-1H-indazol-3-yl)-4-(4-(2-((1-(2,6-dioxopiperidin-3-yl)-3-methyl-2-oxo-2,3-dihydro-1H-benzo[d]imidazol-4-yl)oxy)ethyl)piperazin-1-yl)-2-((tetrahydro-2H-pyran˜4-yl)amino)benzamide]: the percent degradation of TPM3-TRKA protein at 0.01 µM in assay [1] (KM12, 16 h) was less than 50%. The compound further gave a negative-log IC50 (pIC50) in assay [2] (KM12, 72 h) of 6.77.
In the case of `O=C1CCC(N2Cc3cc(C#CC4CCN(c5ccc(C(=O)Nc6n[nH]c7ccc(Cc8cc(F)cc(F)c8)cc67)c(NC6CCOCC6)c5)CC4)ccc3C2=O)C(=O)N1` (centres unmarked) [TR-323, N-(5-(3,5-Difluorobenzyl)-1H-indazol-3-yl)-4-(4-((2-(2,6-dioxopiperidin-3-yl)-1-oxoisoindolin-5-yl)ethynyl)piperidin-1-yl)-2-((tetrahydro-2H-pyran-4-yl)amino)benzamide], in assay [1] (KM12, 16 h), the percent degradation of TPM3-TRKA protein at 0.01 µM was more than 80%. In assay [2] (setting [4]), the negative-log IC50 (pIC50) is 7.51.
`Cn1c(=O)n(C2CCC(=O)NC2=O)c2ccc(NCCN3CCN(c4ccc(C(=O)Nc5n[nH]c6ccc(Cc7cc(F)cc(F)c7)cc56)c(NC5CCOCC5)c4)CC3)cc21` (centres unmarked) [TR-324, N-(5-(3,5-difluorobenzyl)-1H-indazol-3-yl)-4-(4-(2-((1-(2,6-dioxopiperidin-3-yl)-3-methyl-2-oxo-2,3-dihydro-1H-benzo[d]imidazol-5-yl)amino)ethyl)piperazin-1-yl)-2-((tetrahydro-2H-pyran-4-yl)amino)benzamide]: in assay [1] (KM12, 16 h), the percent degradation of TPM3-TRKA protein at 0.01 µM is more than 80%. Also, the pIC50 in assay [2] (KM12, 72 h) is 8.89.
